Source: patent US12605370B2, “Agents and compositions for the treatment of glioblastoma” (University of Cincinnati, priority 2020, dated 2026)

Legend:
Assay type in all cases: cell-based
[1] = system: PTEN-deficient glioblastoma cells; test: Cell viability in PTEN-deficient glioblastoma cells (cabozantinib comparison)
Protocol: (§1) Glioblastoma cells were treated to produce two populations: PTEN-expressing and PTEN-deficient. These cells were then treated with either vehicle control, LY2584702, variable concentrations of cabozantinib, or a combination of LY2584702 and variable concentrations of cabozantinib. Cabozantinib is a small molecule inhibitor of RTKs, including TAM receptors. Cell viability was measured after culturing with the inhibitors.

[2] = system: PTEN-expressing glioblastoma cells; test: Cell viability in PTEN-expressing glioblastoma cells (cabozantinib comparison)
Protocol: as §1

[3] = system: PTEN-expressing U-PTEN U87MG cells; test: Cell viability (CytoTox Glo) in PTEN-expressing U-PTEN U87MG glioblastoma cells; settings: U-PTEN U87MG (doxycycline-induced PTEN), serum-free, 72 hours
Protocol: (§2) FIG. 2 depicts a dose curve analysis showing the efficacy of the combination of LY2584702 with merestinib in PTEN-deficient U87MG glioblastoma cells. Viability was measured using CytoTox Glo after culturing with inhibitors in serum-free conditions for 72 hours. Doxycycline addition induced PTEN and protected cells from the cytotoxic effect of combination drug treatment.
(§3) U87MG glioblastoma cells were treated with doxycycline to induce PTEN expression (U-PTEN), while a separate set of U87 glioblastoma cells were treated with a similar amount of vector (U-vector). Thus, the U-vector cells were PTEN-deficient. These cells were then treated with either vehicle control, 10 μM LY2584702, 0.1-20 μM merestinib, or a combination of 10 μM LY2584702 and 0.1-20 μM merestinib. Cell viability was measured using CytoTox Glo after culturing with inhibitors in serum-free conditions for 72 hours.

[4] = system: PTEN-deficient U-vector U87MG glioblastoma cells; test: Cell viability (CytoTox Glo) in PTEN-deficient U-vector U87MG glioblastoma cells; settings: serum-free, 72 hours
Protocol: as §2, §3

shNT LN229 cells = test: Cell viability (CytoTox Glo) in non-targeting shNT LN229 glioblastoma cells; settings: serum-free, 72 hours
Protocol: (§4) LN229 glioblastoma cells were transduced with either short hairpin RNA (shRNA) lentiviral particles coding for non-targeting shRNA (shNT) or shRNA that targets PTEN mRNA (shPTEN) for inhibition and degradation. These cells were then treated with either vehicle control, 10 μM LY2584702, 0.1-20 μM merestinib, or a combination of 10 μM LY2584702 and 0.1-20 μM merestinib. Cell viability was measured using CytoTox Glo after culturing with inhibitors in serum-free conditions for 72 hours.

[5] = system: shPTEN LN229 glioblastoma cells; test: Cell viability (CytoTox Glo) in PTEN-deficient shPTEN LN229 glioblastoma cells; settings: serum-free, 72 hours
Protocol: FIG. 1 depicts a dose curve analysis showing the efficacy of the combination of LY2584702 with merestinib in shPTEN LN229 glioblastoma cells. Viability was measured using CytoTox Glo after culturing with inhibitors in serum-free conditions for 72 hours.
as §4

[6] = variable concentrations of cabozantinib alone

Measured: cytotoxicity (cell viability)

COc1cc2nccc(Oc3ccc(NC(=O)C4(C(=O)Nc5ccc(F)cc5)CC4)cc3)c2cc1OC [cabozantinib]
not cytotoxic: [1]; [6] | [2]; [6]

Cc1ccc(C(=O)Nc2ccc(Oc3cc4cnn(C)c4cc3-c3cn[nH]c3)c(F)c2)c(=O)n1-c1ccc(F)cc1 [merestinib]
not cytotoxic: [3]; 0.1-20 μM merestinib alone | [4]; 0.1-20 μM merestinib alone | shNT LN229 cells; 0.1-20 μM merestinib alone | [5]; 0.1-20 μM merestinib alone

Cn1cc(-c2ccc(F)c(C(F)(F)F)c2)nc1C1CCN(c2ncnc3[nH]ncc23)CC1 [LY2584702]
not cytotoxic: [3]; 10 μM LY2584702 alone | [1]; LY2584702 alone | [4]; 10 μM LY2584702 alone | shNT LN229 cells; 10 μM LY2584702 alone | [2]; LY2584702 alone | [5]; 10 μM LY2584702 alone
